Measurements as given in patent US9000022B2 (Exelixis Patent Company LLC, priority 2005, dated 2015).

Test system: LXRα and/or LXRβ
Test: Co-transfection assay (LXRE luciferase reporter, CV-1 cells)
Format: cell-based, human
Settings: for IC50 or EC50 (potency, activation or inhibition): tested as described in Example 33, IC50 or EC50 for LXRα and/or LXRβ, isoform not specified, read-out: activity (IC50 or EC50 for LXR)
Summary of the method: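 CV-1 cells transiently co-transfected with full-length human LXRα or LXRβ plus RXRα, an LXRE×1-Tk-luciferase reporter and a β-galactosidase control. Compounds incubated 20 h at 37 °C (≤1% DMSO; screen at 10 μM final); luciferase read after lysis. EC50/IC50 from 8-point half-log curves (4 wells per point, ≥3 experiments); efficacy relative to a reference agonist high control and DMSO.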

Row | IC50 or EC50 (potency, activation or inhibition) | SMILES | EC50 (read-out: activity (IC50 or EC50 for LXR), tested as described in Example 33, isoform not specified)
1 | 1000 to 10000 nM | CCOC(=O)c1cc(-c2ccc(-n3cc(C(C)(C)O)nc3-c3ccccc3C(F)(F)F)cc2)cc(S(C)(=O)=O)c1 [Example 401, ethyl 4′-{4-(1-hydroxy-1-methylethyl)-2-[2-(trifluoro-methyl)phenyl]-1H-imidazol-1-yl}-5-(methylsulfonyl)biphenyl-3-carboxylate] | 
2 | < 1000 nM | CC(C)(O)c1cn(-c2c(Cl)cccc2Cl)c(-c2ccc(-c3cccc(S(C)(=O)=O)c3)cc2)n1 [Example 63, 2-(1-(2,6-dichlorophenyl)-2-(3′-(methylsulfonyl)biphenyl-4-yl)-1H-imidazol-4-yl)propan-2-ol] | 
3 | 1000 to 10000 nM | CCS(=O)(=O)c1cccc(-c2ccc(-n3cc(C(C)(C)O)nc3-c3c(F)cccc3Cl)cc2)c1 [Example 92, 2-(2-(2-chloro-6-fluorophenyl)-1-(3′-(ethylsulfonyl)biphenyl-4-yl)-1H-imidazol-4-yl)propan-2-ol] | 
4 | < 1000 nM | CC(C)c1ccccc1-c1nc(C(C)(C)O)cn1-c1ccc(-c2cccc(S(C)(=O)=O)c2)cc1 [Example 94, 2-(2-(2-isopropylphenyl)-1-(3′-(methylsulfonyl)biphenyl-4-yl)-1H-imidazol-4-yl)propan-2-ol] | 
5 | < 1000 nM | CC(C)(O)c1cn(-c2ccc(-c3ccc(CO)c(S(C)(=O)=O)c3)cc2)c(CCc2ccccc2Cl)n1 [Example 29] | 
6 | 1000 to 10000 nM | Cc1cc(-c2cccc(S(C)(=O)=O)c2)ccc1-n1cc(C(C)(C)O)nc1-c1cccc2cnccc12 [Example 35, 2-(2-(isoquinolin-5-yl)-1-(3-methyl-3′-(methylsulfonyl)biphenyl-4-yl)-1H-imidazol-4-yl)propan-2-ol] | 
7 | < 1000 nM | Cc1cc(-c2cccc(S(C)(=O)=O)c2)ccc1-n1cc(C(C)(C)O)nc1-c1cccc(Cl)c1C [Example 189, 2-(2-(3-chloro-2-methylphenyl)-1-(3-methyl-3′-(methylsulfonyl)biphenyl-4-yl)-1H-imidazol-4-yl)propan-2-ol] | 
8 | < 1000 nM | CCNC(=O)c1cn(-c2ccc(-c3cccc(S(C)(=O)=O)c3)cc2)c(-c2c(Cl)cccc2Cl)n1 [Example 82, 2-(2,6-dichlorophenyl)-N-ethyl-1-(3′-(methylsulfonyl)biphenyl-4-yl)-1H-imidazole-4-carboxamide] | 
9 | < 1000 nM | Cc1cc(-c2ccc(CO)c(S(C)(=O)=O)c2)ccc1-n1cc(C(C)(C)O)nc1-c1c(Cl)cccc1Cl [Example 174, 2-(2-(2,6-dichlorophenyl)-1-(4′-(hydroxymethyl)-3-methyl-3′-(methylsulfonyl)biphenyl-4-yl)-1H-imidazol-4-yl)propan-2-ol] | 
10 | 1000 to 10000 nM | COC(=O)c1cccc(-c2ccc(-n3cc(C(C)(C)O)nc3-c3ccccc3Cl)cc2)c1 [Example 390, methyl 4′-[2-(2-chlorophenyl)-4-(1-hydroxy-1-methylethyl)-1H-imidazol-1-yl]biphenyl-3-carboxylate] | 
11 | < 1000 nM | CCS(=O)(=O)c1cccc(-c2ccc(-n3cc(C(C)(C)O)nc3-c3c(C)cccc3Cl)c(F)c2)c1 [Example 129] | 
12 | < 1000 nM | Cc1c(Cl)cccc1-c1nc(C(C)(C)O)cn1-c1ccc(-c2cccc(S(C)(=O)=O)c2)cc1F [Example 118, 2-(2-(3-chloro-2-methylphenyl)-1-(3-fluoro-3′-(methylsulfonyl)biphenyl-4-yl)-1H-imidazol-4-yl)propan-2-ol] | 
13 | 1000 to 10000 nM | CC(C)(O)c1cn(-c2ccc(-c3cccc(S(C)(=O)=O)c3)cc2)c(-c2c(F)cccc2F)n1 [Example 410, 2-{2-(2,6-difluorophenyl)-1-[3′-(methylsulfonyl)biphenyl-4-yl]-1H-imidazol-4-yl}propan-2-ol] | 
14 | 1000 to 10000 nM | CC(C)(O)c1cn(-c2ccc(-c3cccc(S(C)(=O)=O)c3)cc2)c(-c2c(Cl)cccc2-c2cccc(S(C)(=O)=O)c2)n1 [Example 458, 2-(2-(3-chloro-3′-(methyl-sulfonyl)biphenyl-2-yl)-1-(3′-(methylsulfonyl)biphenyl-4-yl)-1H-imidazol-4-yl)propan-2-ol] | 
15 |  | CC(C)(O)c1cn(-c2ccc(-c3cccc(S(C)(=O)=O)c3)cc2Cl)c(Cc2cccc(Cl)c2Cl)n1 [Example 25, 2-(1-(3-chloro-3′-(methyl-sulfonyl)biphenyl-4-yl)-2-(2,3-dichlorobenzyl)-1H-imidazol-4-yl)propan-2-ol] | < 1000 nM
16 | < 1000 nM | CCS(=O)(=O)c1cc(-c2ccc(-n3cc(C(C)(C)O)nc3Cc3c(Cl)cccc3Cl)cc2)ccc1CO [Example 8] | 

Row | IC50 or EC50 (potency, activation or inhibition) | SMILES | EC50 (read-out: activity (IC50 or EC50 for LXR), tested as described in Example 33, isoform not specified)
17 | < 1000 nM | CC(C)(C)NC(=O)c1cn(-c2ccc(-c3cccc(S(C)(=O)=O)c3)cc2Cl)c(-c2c(Cl)cccc2Cl)n1 [Example 465, N-tert-butyl-1-(3-chloro-3′-(methylsulfonyl)biphenyl-4-yl)-2-(2,6-dichlorophenyl)-1H-imidazole-4-carboxamide] | 
18 | < 1000 nM | CS(=O)(=O)c1cccc(-c2ccc(-n3cc(C(F)(F)F)nc3-c3ccccc3Cl)cc2)c1 [Example 358, 2-(2-chlorophenyl)-1-[3′-(methyl-sulfonyl)biphenyl-4-yl]-4-(trifluoro-methyl)-1H-imidazole] | 
19 | < 1000 nM | CC(C)(O)c1cn(-c2ccc(-c3ccc(CO)c(S(C)(=O)=O)c3)cc2)c(-c2c(Cl)cccc2Cl)n1 [Example 99, 2-(2-(2,6-dichlorophenyl)-1-(4′-(hydroxymethyl)-3′-(methyl-sulfonyl)biphenyl-4-yl)-1H-imidazol-4-yl)propan-2-ol] | 
20 | < 1000 nM | CS(=O)(=O)c1cccc(-c2ccc(-n3cc(C(F)(F)F)nc3-c3ccccc3C(F)(F)F)cc2)c1 [Example 364, 1-[3′-(methylsulfonyl)biphenyl-4-yl]-4-(trifluoromethyl)-2-[2-(trifluoro-methyl)phenyl]-1H-imidazole] | 
21 | < 1000 nM | CC(C)(O)c1cn(-c2cccc(-c3cccc(S(C)(=O)=O)c3)c2)c(-c2ccccc2C(F)(F)F)n1 [Example 201, 2-{1-[3′-(methylsulfonyl)biphenyl-3-yl]-2-[2-(trifluoromethyl)phenyl]-1H-imidazol-4-yl}propan-2-ol] | 
22 | 1000 to 10000 nM | CN1CCN(C(=O)c2cn(-c3ccc(-c4cccc(S(C)(=O)=O)c4)cc3)c(-c3c(Cl)cccc3Cl)n2)CC1 [Example 83, (2-(2,6-dichlorophenyl)-1-(3′-(methylsulfonyl)biphenyl-4-yl)-1H-imidazol-4-yl)(4-methylpiperazin-1-yl)methanone] | 
23 | < 1000 nM | COc1ccc(-c2ccc(-n3cc(C(C)(C)O)nc3Cc3cccc(Cl)c3Cl)c(C)c2)cc1S(C)(=O)=O [Example 456, 2-(2-(2,3-dichlorobenzyl)-1-(4′-methoxy-3-methyl-3′-(methyl-sulfonyl)biphenyl-4-yl)-1H-imidazol-4-yl)propan-2-ol] | 
24 | < 1000 nM | CC(C)(O)c1cn(-c2ccc(-c3cccc(S(C)(=O)=O)c3)cc2Cl)c(-c2cccc(F)c2Cl)n1 [Example 151, 2-(1-(3-chloro-3′-(methyl-sulfonyl)biphenyl-4-yl)-2-(2-chloro-3-fluorophenyl)-1H-imidazol-4-yl)propan-2-ol] | 
25 | < 1000 nM | CC(C)(CO)NC(=O)c1cn(-c2ccc(-c3cccc(C(C)(C)O)c3)cc2Cl)c(-c2c(Cl)cccc2Cl)n1 [Example 480, 1-(3-chloro-3′-(2-hydroxypropan-2-yl)biphenyl-4-yl)-2-(2,6-dichlorophenyl)-N-(1-hydroxy-2-methylpropan-2-yl)-1H-imidazole-4-carboxamide] | 
26 | < 1000 nM | CNS(=O)(=O)c1cccc(-c2ccc(-n3cc(C(C)(C)O)nc3-c3c(Cl)cccc3Cl)cc2)c1 [Example 108, 4′-(2-(2,6-dichlorophenyl)-4-(2-hydroxypropan-2-yl)-1H-imidazol-1-yl)-N-methylbiphenyl-3-sulfonamide] | 
27 | < 1000 nM | CS(=O)(=O)c1cccc(-c2ccc(-n3cc(C(F)(F)F)nc3-c3ccccc3Cl)nc2)c1 [Example 370, 2-[2-(2-chlorophenyl)-4-(trifluoro-methyl)-1H-imidazol-1-yl]-5-[3-(methylsulfonyl)phenyl]pyridine] | 
28 | < 1000 nM | CC(C)(O)c1cn(-c2ccc(-c3cc(S(C)(=O)=O)ccc3Cl)cc2Cl)c(-c2c(Cl)cccc2Cl)n1 [Example 467, 2-(1-(2′,3-dichloro-5′-(methyl-sulfonyl)biphenyl-4-yl)-2-(2,6-dichlorophenyl)-1H-imidazol-4-yl)propan-2-ol] | 
29 | < 1000 nM | Cc1c(Cl)cccc1-c1nc(C(C)(C)O)cn1-c1ccc(-c2ccc(CO)c(S(C)(=O)=O)c2)cc1Cl [Example 160, 2-(2-(3-chloro-2-methylphenyl)-1-(3-chloro-4′-(hydroxymethyl)-3′-(methylsulfonyl)biphenyl-4-yl)-1H-imidazol-4-yl)propan-2-ol] | 
30 | < 1000 nM | CCOC(=O)c1cn(-c2ccc(-c3cccc(S(C)(=O)=O)c3)cc2)c(-c2ccccc2)n1 [Example 376, ethyl 1-[3′-(methylsulfonyl)biphenyl-4-yl]-2-phenyl-1H-imidazole-4-carboxylate] | 
31 | < 1000 nM | Cc1cc(-c2ccc(CO)c(S(C)(=O)=O)c2)ccc1-n1cc(C(C)(C)O)nc1-c1c(F)cccc1F [Example 178, 2-(2-(2,6-difluorophenyl)-1-(4′-(hydroxymethyl)-3-methyl-3′-(methylsulfonyl)biphenyl-4-yl)-1H-imidazol-4-yl)propan-2-ol] | 
